Assay results taken from patent US4119784A, “Anionic substituted sulfonamido biphenyls” (American Cyanamid Company, priority 1977, dated 1978).
Structures can show the parent of a compound that is named as a salt.

Assays:
Type in all cases: biochemical
activated human C1 = assay: Test, Code 026 (C1 inhibitor); conditions: activity in wells of a two-fold serial dilution assay; higher well number indicates higher activity
Description: (§1) An active inhibitor protects C2 from C1 and C4; (ii) Test, Code 035 (C3-C9 inhibitor)--This test determines the ability of the late components of human complement (C3-C9) to lyse EAC 142 in the presence of appropriate dilutions of the test compound. An active inhibitor protects EAC 142 from lysis by human C3-C9; (iii) Test, Code 036 (C-Shunt inhibitor)--In this test human erythrocytes rendered fragile are lysed in autologous serum via the shunt pathway activated by cobra venom factor in the presence of appropriate dilutions of the test compound. Inhibition of the shunt pathway results in failure of lysis; (iv) Forssman Vasculitis Test--Here, the well known complement dependent lesion, Forssman vasculitis, is produced in guinea pigs by intradermal injection of rabbit anti-Forssman antiserum. […]

[1] = system: late components of human complement (C3-C9); assay: Test, Code 035 (C3-C9 inhibitor); parameters: key: N = Negative; conditions: protection of EAC 142 from lysis by human C3-C9; two-fold serial dilution assay
Description: as §1

[2] = system: shunt pathway activated by cobra venom factor; assay: Test, Code 036 (C-Shunt inhibitor); conditions: human erythrocytes in autologous serum; two-fold serial dilution assay; higher well number indicates higher activity
Description: as §1

O=C(O)c1cc(NS(=O)(=O)c2ccc(-c3ccc(S(=O)(=O)Nc4cc(C(=O)O)cc(C(=O)O)c4)cc3S(=O)(=O)Nc3cc(C(=O)O)cc(C(=O)O)c3)c(S(=O)(=O)Nc3cc(C(=O)O)cc(C(=O)O)c3)c2)cc(C(=O)O)c1 [5,5',5",5'"-[2,2',4,4'-Biphenyltetrayltetrakis(sulfonylimino)[tetraisophthalic acid octasodium salt]
Cl 026 Wells (activated human C1): +7 Wells | C-Late 035 Wells [1]: N | Shunt Inhibition 036 Wells [2]: +3 Wells
